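Test compounds were applied to cells in 96-well plates for 48 hours at 5 doses. GI50 = concentration required for 50% inhibition of growth.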 Calls of active or inactive are those of the source. No stated cut-off is given here; in the data, active = GI50 up to about 1.1 µM and inactive = higher.
Key:
Assay in all cases: NCI tumour cell line growth inhibition, 48 h
[1] = test system: HL-60
[2] = test system: ACHN
[3] = test system: SNB-75
[4] = test system: Malme-3M
[5] = test system: SW-620
[6] = test system: SNB-78
[7] = test system: HOP-62
[8] = test system: UACC-62
[9] = test system: KM-20L2
[10] = test system: U-251
[11] = test system: SF-295
[12] = test system: DLD-1
[13] = test system: SK-MEL-2
[14] = test system: DMS-114
[15] = test system: RXF 393
[16] = test system: UO-31
[17] = test system: SF-268
[18] = test system: HT-29
[19] = test system: A549
[20] = test system: KM12
[21] = test system: NCI-H226
[22] = test system: UACC-257
[23] = test system: TK-10
[24] = test system: LXFL 529
[25] = test system: SK-MEL-28
[26] = test system: XF498
[27] = test system: SN12C
[28] = test system: LOX IMVI
[29] = test system: OVCAR-4
[30] = test system: SNB-19
[31] = test system: RPMI-8226
[32] = test system: OVCAR-8
[33] = test system: SK-MEL-5
[34] = test system: MOLT-4
[35] = test system: 786-0
[36] = test system: HOP-92
[37] = test system: NCI-H460
[38] = test system: IGROV-1
[39] = test system: HCC 2998
[40] = test system: OVCAR-3
[41] = test system: M14
[42] = test system: CCRF-CEM
[43] = test system: M19-MEL
[44] = test system: COLO 205
[45] = test system: EKVX
[46] = test system: OVCAR-5
[47] = test system: HCT-116
[48] = test system: NCI-H23

Measured: GI50

N#CC(/C(=N/NC(=O)C(=O)NN)C(=O)Nc1nc([N+](=O)[O-])cs1)c1ccc(Cl)cc1 (stereo not drawn)
inactive: [1] > 100 µM | [2] > 100 µM | [3] > 100 µM | [4] > 100 µM | [5] > 100 µM | [6] > 100 µM | [7] > 100 µM | [8] 56.5 µM | [9] > 100 µM | [10] > 100 µM | [11] > 100 µM | [12] > 100 µM | [13] > 100 µM | [14] > 100 µM | [15] > 100 µM | [16] > 100 µM | [17] > 100 µM | [18] > 100 µM | [19] > 100 µM | [20] > 100 µM | [21] > 100 µM | [22] > 100 µM | [23] > 100 µM | [24] > 100 µM | [25] > 100 µM | [26] > 100 µM | [27] > 100 µM | [28] > 100 µM | [29] > 100 µM | [30] > 100 µM | [31] > 100 µM | [32] > 100 µM | [33] > 100 µM | [34] > 100 µM | [35] > 100 µM | [36] > 100 µM | [37] > 100 µM | [38] > 100 µM | [39] > 100 µM | [40] > 100 µM | [41] > 100 µM | [42] 89.5 µM | [43] > 100 µM | [44] > 100 µM | [45] > 100 µM | [46] > 100 µM | [47] > 100 µM | [48] > 100 µM

Source: ChEMBL document CHEMBL1201862, “PubChem BioAssay data set” (2004)
